The results in this text go back to US10428104B2, “Substituted nucleoside derivatives useful as anticancer agents” (Pfizer Inc., priority 2015, dated 2019).

Usually IC50 stands for the concentration at which inhibition is half-maximal. Low readings indicate higher potency, high ones lower potency.

This assay deals with PRMT5/MEP50 protein complex (Homo sapiens (Human), UniProt O14744). The assay is described as follows: PRMT5 biochemical assay (3H-SAM methylation of H4(1-21) peptide, filter plate scintillation counting). As to conditions: PRMT5 enzyme inhibition; 10 nM PRMT5/MEP50 complex, 200 nM H4(1-21) peptide, 1 uM SAM, 25 minute incubation at room temperature. As to the method: Following dilution, 1 ul was added to an empty 96-well microtiter plate. PRMT5/MEP50 protein complex was combined with H4(1-21) peptide ([…]) in PRMT5 assay buffer (50 mM Tris pH 8.5, 50 mM NaCl, 5 mM MgCl2, 1 mM EDTA, 1 mM TCEP) and 44 ul was added to the microtiter plate containing compound. S-Adenosyl-L-methionine (SAM) was prepared by combining ^3H labelled SAM with unlabelled SAM in PRMT5 assay buffer such that the final SAM concentration was 10 uM and the specific activity was 0.2 uCi/ul. The reaction was initiated by adding 5 ul of SAM stock to the microtiter plate. The final reaction conditions were 10 nM PRMT5/MEP50 complex, 200 nM peptide and 1 uM SAM. Following a 25 minute incubation at room temperature, the reaction was stopped with the addition of 100 uL of 20% TCA. The 3H-peptide product was captured using a 96-well filter plate (MSIPN4B, Millipore) and washed 5 times with PBS buffer. Scintillation fluid (100 ul) was added to the dried filter plate and counted in a liquid scintillation counter. IC50 values were determined by fitting the data to the standard 4-parameter dose response equation using Pfizer proprietary software.
Chain of PRMT5/MEP50 protein complex (O14744 other isoform, or with tags, fused parts or gaps): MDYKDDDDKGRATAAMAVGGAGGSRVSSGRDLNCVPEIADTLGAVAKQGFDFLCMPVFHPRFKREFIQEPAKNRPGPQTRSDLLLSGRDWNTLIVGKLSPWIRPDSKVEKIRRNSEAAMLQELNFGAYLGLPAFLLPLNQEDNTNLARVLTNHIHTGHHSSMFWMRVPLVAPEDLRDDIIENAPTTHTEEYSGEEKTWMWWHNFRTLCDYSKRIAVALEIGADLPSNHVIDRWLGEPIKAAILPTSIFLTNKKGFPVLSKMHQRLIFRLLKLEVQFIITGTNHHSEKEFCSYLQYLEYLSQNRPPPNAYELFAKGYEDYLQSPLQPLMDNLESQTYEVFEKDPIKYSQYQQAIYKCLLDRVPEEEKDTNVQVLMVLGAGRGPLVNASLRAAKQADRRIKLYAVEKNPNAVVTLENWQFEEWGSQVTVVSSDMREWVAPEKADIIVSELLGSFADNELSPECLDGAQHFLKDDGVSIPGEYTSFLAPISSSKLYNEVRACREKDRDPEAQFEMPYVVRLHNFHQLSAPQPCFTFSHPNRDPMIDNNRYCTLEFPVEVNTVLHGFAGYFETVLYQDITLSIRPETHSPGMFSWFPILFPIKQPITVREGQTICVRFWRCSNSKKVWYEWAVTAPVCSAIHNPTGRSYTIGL
Chain of PRMT5/MEP50 protein complex (Q9BQA1 whole entry partner): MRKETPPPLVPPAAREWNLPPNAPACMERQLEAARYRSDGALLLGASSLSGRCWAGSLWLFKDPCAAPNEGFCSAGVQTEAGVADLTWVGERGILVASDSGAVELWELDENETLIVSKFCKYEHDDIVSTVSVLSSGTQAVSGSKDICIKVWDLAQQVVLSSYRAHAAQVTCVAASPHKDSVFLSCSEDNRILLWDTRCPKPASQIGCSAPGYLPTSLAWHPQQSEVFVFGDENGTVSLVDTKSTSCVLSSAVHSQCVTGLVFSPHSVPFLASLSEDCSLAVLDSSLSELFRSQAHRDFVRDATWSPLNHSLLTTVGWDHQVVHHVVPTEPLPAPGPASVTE
In the final construct PRMT5 ORF was under control of polyhedrin promoter (polH) while MEP50 ORF was under control of p10 promoter.
Viruses were generated using standard Bac-to-Bac viral generation protocols (Life Technologies) and amplified to high-titer passage two (P2) stocks. Protein over expression was conducted in exponentially growing Sf21 cells infected at 2×106 with P2 viral stock at MOI=1 of PRMT5-Mep50 dual construct virus and Mep50 construct virus at 1:1 ratio. The co-expression protocol was used to supplement additional Mep50 for FlagPRMT5-Mep50 heterodimer formation. Cells were harvested at 72 h post infection by centrifugation and frozen pellet was stored at −80° C.
FlagPRMT5-Mep50 complex was purified from cell lysate using Flag affinity chromatography. Cell were lyzed in 50 mM Tris 7.5, 200 mM NaCl, 10% glycerol, 0.25 mM TCEP supplemented with EDTA-free protease inhibitor cocktail (Roche). 1.5 ml of lysis buffer was added per 1 g of frozen pellet. The clarified lysate was obtained by centrifugation of cell lysate at 10,000 g for 1 h at 4 C. 5 ml of Anti-FLAG M2 Agarose (Sigma) […] was added to the clarified lysate to isolate FlagPRMT5-Mep50. Following batch binding for 3 h at 4 C, Flag resin bound to FlagPRMT5-Mep50 washed with 20 column volumes (CV) of 50 mM Tris 7.5, 200 mM NaCl, 10% glycerol, 0.25 mM TCEP followed by elution of FlagPRMT5-Mep50 complex using 3 CV of 50 mM Tris 7.5, 200 mM NaCl, 10% glycerol, 0.25 mM TCEP supplemented with 200 ug/ml of FLAG Peptide ([…]). […] Peak fractions containing FlagPRMT5-Mep50 complex were concentrated to 1.6 mg/ml, flash frozen in small aliquots using liquid nitrogen and stored at −80° C.

`Cc1ncnc2c1ccn2[C@@H]1O[C@@H]([C@@H](O)c2ccccc2)[C@@H](O)[C@H]1O` [Example 73, (2S,3S,4R,5R)-2-((S)-hydroxy(phenyl)methyl)-5-(4-methyl-7H-pyrrolo[2,3-d]pyrimidin-7-yl)tetrahydrofuran-3,4-diol]: the IC50 came to 23.3 µM.
`Cc1ncnc2c1ccn2[C@@H]1O[C@@H]([C@H](O)c2ccccc2)[C@@H](O)[C@H]1O` [Example 74, (2S,3S,4R,5R)-2-((R)-hydroxy(phenyl)methyl)-5-(4-methyl-7H-pyrrolo[2,3-d]pyrimidin-7-yl)tetrahydrofuran-3,4-diol]: the IC50 worked out at 3.14 µM.
Consider `Cc1ncnc2c1ccn2[C@@H]1O[C@@H]([C@@H](O)c2ccc(F)cc2)[C@@H](O)[C@H]1O` [Example 75, (2S,3S,4R,5R)-2-((S)-(4-fluorophenyl)(hydroxy)methyl)-5-(4-methyl-7H-pyrrolo[2,3-d]pyrimidin-7-yl)tetrahydrofuran-3,4-diol], for which half-maximal inhibition (IC50) required 21.7 µM.
`Cc1ncnc2c1ccn2[C@@H]1O[C@@H]([C@H](O)c2ccc(F)cc2)[C@@H](O)[C@H]1O` [Example 76, (2S,3S,4R,5R)-2-((R)-(4-fluorophenyl)(hydroxy)methyl)-5-(4-methyl-7H-pyrrolo[2,3-d]pyrimidin-7-yl)tetrahydrofuran-3,4-diol] yielded an IC50 of 1.81 µM.
The compound `Cc1ncnc2c1ccn2[C@@H]1O[C@@H](c2ccn(C)n2)[C@@H](O)[C@H]1O` [Example 77, (2S,3S,4R,5R)-2-(1-methyl-1H-pyrazol-3-yl)-5-(4-methyl-7H-pyrrolo[2,3-d]pyrimidin-7-yl)tetrahydrofuran-3,4-diol] yielded an IC50 of 24.4 µM.
In turn, `CCOCc1cc([C@@H]2O[C@@H](n3ccc4c(C)ncnc43)[C@H](O)[C@@H]2O)[nH]n1` [Example 78, (2S,3S,4R,5R)-2-(3-(ethoxymethyl)-1H-pyrazol-5-yl)-5-(4-methyl-7H-pyrrolo[2,3-d]pyrimidin-7-yl)tetrahydrofuran-3,4-diol] had an IC50 of 51.1 µM.
To `Cc1ncnc2c1ccn2[C@@H]1O[C@@H](C(O)CO)[C@@H](O)[C@H]1O` (stereo partly drawn) [Example 79, (2S,3S,4R,5R)-2-(1,2-dihydroxyethyl)-5-(4-methyl-7H-pyrrolo[2,3-d]pyrimidin-7-yl)tetrahydrofuran-3,4-diol] belongs 5.23 µM; to `Nc1ncnc2c([C@@H]3O[C@H]([C@H](O)c4ccc(F)cc4)[C@@H](O)[C@H]3O)coc12` [Example 80, (2S,3R,4S,5R)-2-(4-aminofuro[3,2-d]pyrimidin-7-yl)-5-((R)-(4-fluorophenyl)(hydroxy)methyl)tetrahydrofuran-3,4-diol], 0.032 µM; to `Cc1ncnc2c1ccn2[C@@H]1O[C@H]([C@H](O)c2ccccc2S(C)(=O)=O)[C@@H](O)[C@H]1O` [Example 81], 91.7 µM.
To `Cc1ncnc2c1ccn2[C@@H]1O[C@@H]([C@H](C)O)[C@@H](O)[C@H]1O` [Example 89, (2S,3S,4R,5R)-2-((S)-1-hydroxyethyl)-5-(4-methyl-7H-pyrrolo[2,3-d]pyrimidin-7-yl)tetrahydrofuran-3,4-diol] belongs 1.73 µM; to `Cc1ncnc2c1ccn2[C@@H]1O[C@@H](C(C)(C)O)[C@@H](O)[C@H]1O` [Example 90, (2R,3S,4R,5R)-2-(2-hydroxypropan-2-yl)-5-(4-methyl-7H-pyrrolo[2,3-d]pyrimidin-7-yl)tetrahydrofuran-3,4-diol], 3.24 µM.
In turn, `Cc1ncnc2c1ccn2[C@@H]1O[C@H](C(=O)c2ccc(F)c(F)c2)[C@@H](O)[C@H]1O` [Example 91, (3,4-difluorophenyl)((2S,3S,4R,5R)-3,4-dihydroxy-5-(4-methyl-7H-pyrrolo[2,3-d]pyrimidin-7-yl)tetrahydrofuran-2-yl)methanone] registered an IC50 of 0.355 µM.
With `Cc1ncnc2c1ccn2[C@@H]1O[C@H]([C@@H](F)c2ccc(F)c(F)c2)[C@@H](O)[C@H]1O` [Example 93, (2S,3S,4R,5R)-2-((S)-(3,4-difluorophenyl)fluoromethyl)-5-(4-methyl-7H-pyrrolo[2,3-d]pyrimidin-7-yl)tetrahydrofuran-3,4-diol], the IC50 turned out to be 0.299 µM.
